Test results taken from patent US11730405B2, “Body fluid leakage detection aqueous composition” (MAGLE CHEMOSWED HOLDING AB, priority 2017, dated 2023).
Where “and” joins values, the source holds several entries; their conditions need not be identical. Equal entries are not always repeated. Where two headings read alike, the source gives them in different places.

Tests used:
[1] = Pharmacokinetics of BTB in drainage fluid and portal venous blood after abdominal application of PAN indicator hydrogel (HPLC-MS); format: in vivo, domestic pigs (Sus Scrofa Domestica); conditions: for concentration at 1 day / concentration at 2 day / concentration at 0 min / concentration at 1 min / concentration at 5 min / concentration at 30 min / concentration at 60 min / concentration at 120 min: pig, other: abdominal application at the pancreatic surgery field; for concentration at 5 min: Min 5, mean of animals; for concentration at 30 min: Min 30, mean of animals
Description: (§1) PAN toxicology was evaluated by analyzing in vivo pharmacokinetics of its degradation products over 48 hours. Additionally, acute local tissue injury caused by the indicator within minutes as well as macroscopic intra-abdominal side effects and local histological of the device over 8 days were assessed. Finally, cytotoxicity of its degradation products on pancreatic target cells was analyzed.
For toxicological evaluation of PAN indicator hydrogel pharmacokinetics studies were conducted measuring concentrations of degradation products of the device in body fluid components over time consequently to abdominal application in pancreatic surgery. Blood from portal vein and peritoneal fluid from intraoperative situs or postoperative drainages were sampled. Time points of sampling in relation to indicator application were: 0 min (baseline before indicator application), 1, 5, 30, 60, and 120 min, 1st and 2nd postoperative day. Due to its composition with water and degradable components starch microspheres, only further constituent bromothymol blue (BTB) needed to be evaluated. It should be evaluated if and how much BTB stays in the organism after application at the pancreatic surgery field, gets resorbed to portal venous circulation and passes liver metabolism to reach central venous circulation. Thus, samples of body were collected at the different body compartments over time as described above. Due to expected extremely small BTB-amounts to be measured the very sensitive detection method High Pressure Liquid Chromatography-Mass Spectrometry (HPLC-MS) was used.

[2] = cited from earlier work
[3] = system: pancreatic target cells; test: Cytotoxicity cell culture assay (resazurin to resofurin fluorescence photometry); format: cell-based
Description: as §1
Cytotoxicity by PAN was further evaluated in a cell culture assay. Metabolic activity of viable cells was evaluated by fluorescence photometry of metabolized resofurin from resazurin after incubation with increasing amount of BTB. PAN indicator hydrogels contain BTB at a concentration of almost 0.5 mg/ml. Thus BTB-solutions with concentrations of 0.5 mg/ml, 1 mg/ml, 1.5 mg/ml, and 5.5 mg/ml, respectively were tested. Cytotoxicity is defined as cell viability less than 70%.

[4] = drainage fluid (peritoneal fluid), pig drainage fluid, read-out: Drainage BTB-Concentration, Mean
[5] = portal venous blood, pig portal venous blood, read-out: Portal Venous Blood BTB-Concentration, Mean

- concentration at 1 day ([1]; drainage fluid (peritoneal fluid), pig drainage fluid, Day 1, mean of animals, read-out: Drainage BTB-Concentration, Mean): 17.1 ng/mL
- concentration at 2 day ([1]; drainage fluid (peritoneal fluid), pig drainage fluid, Day 2, mean of animals, read-out: Drainage BTB-Concentration, Mean): 0 ng/mL
- concentration at 0 min ([1]; drainage fluid (peritoneal fluid), pig drainage fluid, Min 0 (baseline before indicator application), mean of animals, read-out: Drainage BTB-Concentration, Mean): 1.9 ng/mL
- concentration at 1 min ([1]; drainage fluid (peritoneal fluid), pig drainage fluid, Min 1, mean of animals, read-out: Drainage BTB-Concentration, Mean): 4220 ng/mL
- concentration at 5 min [1, 4]: 3170 ng/mL
- concentration at 30 min [1, 4]: 1310 ng/mL
- concentration at 60 min ([1]; drainage fluid (peritoneal fluid), pig drainage fluid, Min 60, mean of animals, read-out: Drainage BTB-Concentration, Mean): 661 ng/mL
- concentration at 120 min ([1]; drainage fluid (peritoneal fluid), pig drainage fluid, Min 120, mean of animals, read-out: Drainage BTB-Concentration, Mean): 408 ng/mL
- concentration at 1 day ([1]; portal venous blood, pig portal venous blood, Day 1, mean of animals, read-out: Portal Venous Blood BTB-Concentration, Mean): 0 ng/mL
- concentration at 2 day ([1]; portal venous blood, pig portal venous blood, Day 2, mean of animals, read-out: Portal Venous Blood BTB-Concentration, Mean): 0 ng/mL
- concentration at 0 min ([1]; portal venous blood, pig portal venous blood, Min 0 (baseline before indicator application), mean of animals, read-out: Portal Venous Blood BTB-Concentration, Mean): 0 ng/mL
- concentration at 1 min ([1]; portal venous blood, pig portal venous blood, Min 1, mean of animals, read-out: Portal Venous Blood BTB-Concentration, Mean): 0 ng/mL
- concentration at 5 min [1, 5]: 0.51 ng/mL
- concentration at 30 min [1, 5]: 0.53 ng/mL
- concentration at 60 min ([1]; portal venous blood, pig portal venous blood, Min 60, mean of animals, read-out: Portal Venous Blood BTB-Concentration, Mean): 0 ng/mL
- concentration at 120 min ([1]; portal venous blood, pig portal venous blood, Min 120, mean of animals, read-out: Portal Venous Blood BTB-Concentration, Mean): 0 ng/mL
SMILES: Cc1c(C2(c3cc(C(C)C)c(O)c(Br)c3C)OS(=O)(=O)c3ccccc32)cc(C(C)C)c(O)c1Br [BTB, bromothymol blue]
- Drainage BTB-Concentration ([1]; pig drainage fluid, Day 1 (1st postoperative day), individual animals Tox 1-4): < 20 ng/mL and 32.1 ng/mL and 18.9 ng/mL and 14.4 ng/mL and 2.98 ng/mL
- Drainage BTB-Concentration ([1]; pig drainage fluid, Day 2 (2nd postoperative day), individual animals Tox 1-4): no detectable amount and 0 ng/ml
- Drainage BTB-Concentration ([1]; pig drainage fluid, Min 0 (baseline before indicator application), individual animals Tox 1-4): 0 ng/ml (3×) and 7.44 ng/ml
- Drainage BTB-Concentration ([1]; pig drainage fluid, Min 1 after indicator application, individual animals Tox 1-4): 2060 ng/mL and 9220 ng/mL and 3600 ng/mL and 2010 ng/mL
- Drainage BTB-Concentration ([1]; pig drainage fluid, Min 5, individual animals Tox 1-4): 7650 ng/mL and 389 ng/mL and 2560 ng/mL and 2070 ng/mL
- Drainage BTB-Concentration ([1]; pig drainage fluid, Min 30, individual animals Tox 1-4): 3280 ng/mL and 10.7 ng/mL and 1220 ng/mL and 712 ng/mL
- Drainage BTB-Concentration ([1]; pig drainage fluid, Min 60, individual animals Tox 1-4): 1140 ng/mL and 9.27 ng/mL and 1270 ng/mL and 224 ng/mL
- Drainage BTB-Concentration ([1]; pig drainage fluid, Min 120, individual animals Tox 1-4): 619 ng/mL and 263 ng/mL and 631 ng/mL and 121 ng/mL
- Portal Venous Blood BTB-Concentration ([1]; pig portal venous blood, Day 1, individual animals Tox 1-4): 0 ng/mL
- Portal Venous Blood BTB-Concentration ([1]; pig portal venous blood, Day 2, individual animals Tox 1-4): 0 ng/mL
- Portal Venous Blood BTB-Concentration ([1]; pig portal venous blood, Min 0 (baseline before indicator application), individual animals Tox 1-4): 0 ng/mL
- Portal Venous Blood BTB-Concentration ([1]; pig portal venous blood, Min 1, individual animals Tox 1-4): 0 ng/mL
- Portal Venous Blood BTB-Concentration ([1]; pig portal venous blood, Min 5, individual animals Tox 1-4): 0 ng/ml (3×) and 2.02 ng/ml
- Portal Venous Blood BTB-Concentration ([1]; pig portal venous blood, Min 30, individual animals Tox 1-4): 0 ng/ml (3×) and 2.11 ng/ml
- Portal Venous Blood BTB-Concentration ([1]; pig portal venous blood, Min 60, individual animals Tox 1-4): 0 ng/mL
- Portal Venous Blood BTB-Concentration ([1]; pig portal venous blood, Min 120, individual animals Tox 1-4): 0 ng/mL
- concentration at 2 day ([1]; drainage fluid (peritoneal fluid), pig drainage fluid, Day 2 (2nd postoperative day), individual animals Tox 1-4, read-out: Drainage BTB-Concentration): 0 ng/mL
- concentration at 1 day ([1]; portal venous blood, pig portal venous blood, Day 1, individual animals Tox 1-4, read-out: Portal Venous Blood BTB-Concentration): 0 ng/mL
- concentration at 2 day ([1]; portal venous blood, pig portal venous blood, Day 2, individual animals Tox 1-4, read-out: Portal Venous Blood BTB-Concentration): 0 ng/mL
- concentration at 0 min ([1]; portal venous blood, pig portal venous blood, Min 0 (baseline before indicator application), individual animals Tox 1-4, read-out: Portal Venous Blood BTB-Concentration): 0 ng/mL
- concentration at 1 min ([1]; portal venous blood, pig portal venous blood, Min 1, individual animals Tox 1-4, read-out: Portal Venous Blood BTB-Concentration): 0 ng/mL
- concentration at 60 min ([1]; portal venous blood, pig portal venous blood, Min 60, individual animals Tox 1-4, read-out: Portal Venous Blood BTB-Concentration): 0 ng/mL
- concentration at 120 min ([1]; portal venous blood, pig portal venous blood, Min 120, individual animals Tox 1-4, read-out: Portal Venous Blood BTB-Concentration): 0 ng/mL
- BTB in portal venous blood ([1]; pigs, 5 and 30 minutes after application, remaining pigs and timepoints no BTB detected): small amounts of BTB were found only in one pig
- pKa [2]: 7.0
- cytotoxicity (defined as cell viability less than 70%) ([3]; 5.5 mg/ml of BTB): slight toxicity
- cytotoxicity (defined as cell viability less than 70%) ([3]; 0.5-1.5 mg/ml of BTB): No cytotoxicity
